In PMC11018795, “The regulatory relationship between NAMPT and PD-L1 in cancer and identification of a dual-targeting inhibitor” (EMBO Molecular Medicine, 2024):
“And” between values parts separate entries of the source, which are not always exact repeats. Equal values may be shown once.

Key:
PD-L1 = molecular target: T1, PD-L1 (Homo sapiens, UniProt Q9NZQ7); experiment: Cellular thermal shift assay (CETSA), PD-L1, A2780 cells; type: binding; conditions: for Relative band intensity (PD-L1): LZFPN-90 20 nM
T1 construct: endogenous in cells; host or cells: A2780
T1 sequence (Q9NZQ7 19-290): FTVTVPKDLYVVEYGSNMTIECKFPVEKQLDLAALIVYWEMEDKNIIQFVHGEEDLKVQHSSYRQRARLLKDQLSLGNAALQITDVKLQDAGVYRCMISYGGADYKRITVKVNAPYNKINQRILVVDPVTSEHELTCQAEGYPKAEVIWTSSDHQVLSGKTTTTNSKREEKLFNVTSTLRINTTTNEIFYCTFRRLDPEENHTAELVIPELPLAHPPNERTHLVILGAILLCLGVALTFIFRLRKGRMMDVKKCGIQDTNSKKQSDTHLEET
Procedure: The cells were resuspended in 1× PBS supplemented with protease inhibitors (Roche) and then divided into strip tubes for 30 min. The tubes were centrifuged at 15,000× g at 4 °C for 15 min. After centrifugation, the supernatant was divided into DMSO and LZFPN-90 (20 nM) groups, and incubated at room temperature for 30 min. According to standard procedures (38 °C, 42 °C, 46 °C, 50 °C, 54 °C, 58 °C, 62 °C, 66 °C), each temperature group was heated for 3 min, incubated at room temperature for 3 min. Then centrifuged at 20,000× g for 25 min, the supernatant was collected, 1× loading buffer was added, the mixture was heated in a metal bath at 95 °C for 10 min, and the amount of non-denatured protein per sample was quantified by western blotting.

HCT-116 cells = experiment: MTT assay 48 h, HCT-116; type: cell-based, human
Procedure: (§1) Cells (5 × 10^3/well) were seeded into a 96-well plate and cultured at 37 °C in a 5% CO2 incubator. […] At the final time point, 10 μl MTT solution (5 mg/ml, Sigma, Burlington, MA, USA) was added to each well and incubated for an additional 4 h at 37 °C in a 5% CO2 incubator. Then,100 μl of DMSO was added to each well and mixed thoroughly. Optical density was measured at 492 nm using a microplate reader (Molecular Devices, San Jose, CA, USA).

LLC cells = experiment: Cell cycle analysis, LLC; type: cell-based, mouse
Source text: Supplement 44321_2024_51_MOESM5_ESM.zip/Fig4-D.xlsx, sheet "Sheet1" | column: G0/G1; S; G2/M

[1] = test system: NAD+ content of LLC OE NAMPT/PD-L1 tumor tissue; experiment: NAD+ in tumor tissue, LLC OE NAMPT/PD-L1 mouse model; type: in vivo; conditions: 20 mg/kg
[2] = test system: LLC OE PD-L1 cells co-cultured with T cells; experiment: T cell-mediated tumor cell killing assay, LLC OE PD-L1; type: cell-based; conditions: Mus musculus, 100 nM, read-out: inhibition rate (T cell-mediated killing)
Procedure: To acquire activated T cells, human peripheral blood mononuclear cells (PBMC; LTS1077, Yanjin Biological) were cultured in CTSTM AIIM VTM SFM (A3021002; Gibco) with ImmunoCult Human CD3/CD28/CD2 T-cell activator (25 µL/mL; […] Technologies, Cat#10970) for 48 h according to the manufacturer’s protocol. The experiments were performed using mouse anti-CD3 antibody (1 µg/mL; Thermo Scientific, 16-0032-82) and anti-CD28 antibody(5 µg/mL; Thermo Scientific, 16-0281-82). Cancer cells were allowed to adhere to the plates overnight and then incubated for 48 h with activated T cells in the presence or absence of DX ([…]). Different proportions of cancer cells and activated T cells were utilized according to the purpose of each experiment. The T-cell proliferation assay was 1:3; the T-cell killing assay was 1:10; T cells and cell debris were removed by PBS washing, and the living cancer cells were then quantified by a spectrometer at OD (570 nm) followed by crystal violet staining. page 12: Fig 3: […] expression patterns. […] Data was obtained from the TCGA database. (B) T cell-mediated tumor cell killing assay. T cells were co-cultured with LLC Vector, […] CQ-85, or BMS202. […] stained by crystal violet. The relative added value of activated T cells is shown below. Data are presented as mean ± SEM; *P < 0.05, **P < 0.01, ***P < 0.001, compared with control. n.s., not significant. […]

A20 tumors [3] = experiment: A20 tumor-bearing Balb/c mice; type: in vivo, mouse; conditions: for tumor inhibition rate (TIR) / tumor growth inhibition (TGI) rate at endpoint: 12 days, Fig 6B
LLC OE NAMPT cells = experiment: Cell viability 72 h, LLC OE NAMPT (Fig 4C); type: cell-based, mouse
Procedure: as §1, with “In vitro cell viability was determined using a Cell Counting Kit-8 (MCE) assay. Cells (5 × 10^3/well) were seeded in 96-well culture plates. After 24 h, they were incubated with various concentrations of the test compounds for 48–72 h at 37 °C in a 5% CO2 incubator. Next, 10% of the CCK-8 solution was added to each well, and the plates were incubated for an additional 4 h at 37 °C. The optical density of each well was measured at 450 nm using a multimode plate reader (Molecular Devices, San Jose, CA, USA). Cells” for “Cells”

A20 tumors [4] = experiment: A20 tumor-bearing Balb/c nude mice; type: in vivo, mouse; conditions: 20 mg/kg i.p., Fig 6E
Procedure: The 4–6 weeks-old Balb/c mice and Balb/c nude mice were maintained in a specific pathogen-free (SPF) facility. A20 cells (5 × 10^6 cells in 0.2 ml phosphate-buffered saline) were subcutaneously injected into the right armpit of Balb/c mice and Balb/c nude mice. Tumor volume was measured using calipers every 2 days and calculated using the following formula: (long diameter) × (short diameter)^2/2. […] Balb/c nude mice were treated with LZFPN-90 (20 mg/kg). After 12 days of administration, the animals were anesthetized, and tumors were excised. Some fresh tumor tissues were subjected to immune cell isolation. Tissues were either fixed in 4% formalin or stored at −80 °C until further analysis.

CCN(CC)CCCOc1cccc(-c2cccc3c2CCN3C(=O)c2ncc(CNC(=NC#N)Nc3ccncc3)s2)c1 [LZFPN-90]
thermal stability of PD-L1 (PD-L1; LZFPN-90 20 nM vs blank group): the stability of NAMPT and PD-L1 increased
Relative band intensity (PD-L1) (PD-L1; 38 ℃): 0.8 and 0.83
Relative band intensity (PD-L1) (PD-L1; 42 ℃): 0.79 and 0.8
Relative band intensity (PD-L1) (PD-L1; 46 ℃): 0.86 and 0.82
Relative band intensity (PD-L1) (PD-L1; 50 ℃): 0.7 and 0.76
Relative band intensity (PD-L1) (PD-L1; 54 ℃): 0.56 and 0.61
Relative band intensity (PD-L1) (PD-L1; 58 ℃): 1 and 1.07
Relative band intensity (PD-L1) (PD-L1; 62 ℃): 0.96 and 0.92
Relative band intensity (PD-L1) (PD-L1; 66 ℃): 0.36 and 0.31
Relative inhibition (敏感性) (HCT-116 cells): 0.61
Cell cycle G0/G1 (LLC cells; LZ90 20): 32.7 and 33.42 and 33.1
Cell cycle G2/M (LLC cells; LZ90 20): 8.23 and 9.12 and 10.84
Cell cycle S (LLC cells; LZ90 20): 58.16 and 55.72 and 58.65
Cell cycle G0/G1 (LLC cells; LZ90 40): 31.17 and 30.64 and 32.74
Cell cycle G2/M (LLC cells; LZ90 40): 10.63 and 9.6 and 10.7
Cell cycle S (LLC cells; LZ90 40): 59.19 and 58.63 and 56.62
Cell cycle G0/G1 (LLC cells; LZ90 60): 31.65 and 30.97 and 32.77
Cell cycle G2/M (LLC cells; LZ90 60): 11.3 and 9.97 and 11.14
Cell cycle S (LLC cells; LZ90 60): 58.36 and 57.86 and 55.9
effect on NAD+ content in tumor tissues [1]: reduced NAD^+ content in tumor tissues
NAD+ in 20 mg tissue ([1]; tumor tissue): 221.603 and 139.494 and 234.768
inhibition at 0.1 µM [2]: ~60%
tumor inhibition rate (TIR) / tumor growth inhibition (TGI) rate at endpoint (A20 tumors [3]; 20 mg/kg i.p.): 73.76%
tumor inhibition rate (TIR) / tumor growth inhibition (TGI) rate at endpoint (A20 tumors [3]; 40 mg/kg i.p.): 83.11%
effect on mouse organ or body weight (A20 tumors [3]; A20 model, FK866 20 mg/kg, LZFPN-90 20 and 40 mg/kg i.p.): no obvious effect on mouse organ or body weight
TIR (relative tumor weight) (A20 tumors [3]; Balb/c mice, 20 mg/kg i.p., Fig 6E): 73.8%
tumor inhibition rate (TIR) (A20 tumors [3]; repeat experiment, 40 mg/kg i.p.): 82.70%
effect on mouse organ index or body weight (A20 tumors [3]; repeat experiment, LZFPN-90 40 mg/kg, FK866 20 mg/kg + CQ-85 20 mg/kg i.p.): no obvious effect on mouse organ index or body weight
effect on body weight and organ index (A20 tumors [3]; two animal models (A20 and LLC OE NAMPT/PD-L1)): did not affect the body weight and organ index
Relative viability (LLC OE NAMPT cells; head LLC OE NAMPT/PD-L1 (legend: LLC OE NAMPT), LZ90 0.25 (nM), 0 = 100): 77.2963 and 85.357 and 93.8244
Relative viability (LLC OE NAMPT cells; head LLC OE NAMPT/PD-L1, LZ90 1): 81.6379 and 75.0704 and 92.5933
Relative viability (LLC OE NAMPT cells; head LLC OE NAMPT/PD-L1, LZ90 4): 70.2024 and 73.3725 and 88.779
Relative viability (LLC OE NAMPT cells; head LLC OE NAMPT/PD-L1, LZ90 16): 63.5687 and 62.4896 and 67.6771
Relative viability (LLC OE NAMPT cells; head LLC OE NAMPT/PD-L1, LZ90 64): 57.8886 and 54.3565 and 56.8184
Relative viability (LLC OE NAMPT cells; head LLC OE NAMPT/PD-L1, LZ90 256): 39.2756 and 40.3926 and 41.8466
TIR (relative tumor weight) (A20 tumors [4]): 46.2%
